According to PubChem BioAssay (NCI):
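How tested: cells in 96-well plates exposed to compound for 48 hours at five concentrations. At the GI50, growth is halved. At the TGI there is no net growth.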

Legend:
Test in all cases: NCI-60 cell line screen, 48 h
NCI/ADR-RES ovarian = system: NCI/ADR-RES ovarian
MALME-3M melanoma = system: MALME-3M melanoma
MOLT-4 leukemia = system: MOLT-4 leukemia
UACC-62 melanoma = system: UACC-62 melanoma
NCI-H522 lung = system: NCI-H522 lung
HL-60(TB) leukemia = system: HL-60(TB) leukemia
BT-549 breast = system: BT-549 breast
NCI-H460 lung = system: NCI-H460 lung
A498 renal = system: A498 renal
PC-3 prostate = system: PC-3 prostate
UO-31 renal = system: UO-31 renal
OVCAR-8 ovarian = system: OVCAR-8 ovarian
M14 melanoma = system: M14 melanoma
MDA-MB-468 breast = system: MDA-MB-468 breast
RXF 393 renal = system: RXF 393 renal
SN12C renal = system: SN12C renal
HOP-92 NSCLC = system: HOP-92 NSCLC
HS 578T breast = system: HS 578T breast
OVCAR-4 ovarian = system: OVCAR-4 ovarian
IGROV1 ovarian = system: IGROV1 ovarian
UACC-257 melanoma = system: UACC-257 melanoma
TK-10 renal = system: TK-10 renal
SK-MEL-28 melanoma = system: SK-MEL-28 melanoma
MDA-MB-435 = system: MDA-MB-435
SNB-75 CNS = system: SNB-75 CNS
CCRF-CEM leukemia = system: CCRF-CEM leukemia
HCT-15 colon = system: HCT-15 colon
SK-MEL-5 melanoma = system: SK-MEL-5 melanoma
RPMI-8226 leukemia = system: RPMI-8226 leukemia
HT29 colon = system: HT29 colon
ACHN renal = system: ACHN renal
MCF7 breast = system: MCF7 breast
OVCAR-5 ovarian = system: OVCAR-5 ovarian
KM12 colon = system: KM12 colon
SF-268 CNS = system: SF-268 CNS
K-562 leukemia = system: K-562 leukemia
A549 NSCLC = system: A549 NSCLC
SK-MEL-2 melanoma = system: SK-MEL-2 melanoma
HCT-116 colon = system: HCT-116 colon
COLO 205 colon = system: COLO 205 colon
SF-539 CNS = system: SF-539 CNS
U251 CNS = system: U251 CNS
NCI-H226 lung = system: NCI-H226 lung
NCI-H23 lung = system: NCI-H23 lung
DU-145 prostate = system: DU-145 prostate
HCC-2998 colon = system: HCC-2998 colon
SW-620 colon = system: SW-620 colon
CAKI-1 renal = system: CAKI-1 renal
SK-OV-3 ovarian = system: SK-OV-3 ovarian
EKVX NSCLC = system: EKVX NSCLC
T-47D breast = system: T-47D breast
SF-295 CNS = system: SF-295 CNS
MDA-MB-231 breast = system: MDA-MB-231 breast
LOX IMVI melanoma = system: LOX IMVI melanoma
OVCAR-3 ovarian = system: OVCAR-3 ovarian
786-0 renal = system: 786-0 renal
SR leukemia = system: SR leukemia
SNB-19 CNS = system: SNB-19 CNS
HOP-62 NSCLC = system: HOP-62 NSCLC

With `CC1(C)CC[C@]2(C(=O)N3CCOCC3)CC[C@]3(C)C(=CC[C@@H]4[C@@]5(C)CC[C@H](NCO)C(C)(C)[C@@H]5CC[C@]43C)[C@H]2C1` the GI50 (NCI/ADR-RES ovarian) was 1.99 µM, the TGI (NCI/ADR-RES ovarian) was 7.09 µM and the GI50 (MALME-3M melanoma) was 5.2 µM. The TGI (MALME-3M melanoma) was 9.97 µM, the GI50 (MOLT-4 leukemia) was 0.767 µM and the TGI (MOLT-4 leukemia) was 2.68 µM. It also gave a GI50 (UACC-62 melanoma) of 5.86 µM, a TGI (UACC-62 melanoma) of 10.7 µM and a GI50 (NCI-H522 lung) of 6.27 µM. For the same molecule, the TGI (NCI-H522 lung) was 13.8 µM, the GI50 (HL-60(TB) leukemia) was 0.484 µM and the TGI (HL-60(TB) leukemia) was 1.22 µM. The GI50 (BT-549 breast) was 6.38 µM, the TGI (BT-549 breast) was 12.9 µM and the GI50 (NCI-H460 lung) was 1.02 µM. For the same molecule, the TGI (NCI-H460 lung) was 3.29 µM, the GI50 (A498 renal) was 5.59 µM and the TGI (A498 renal) was 10.9 µM. It also gave a GI50 (PC-3 prostate) of 4.6 µM, a TGI (PC-3 prostate) of 10.6 µM and a GI50 (UO-31 renal) of 4.62 µM. The TGI (UO-31 renal) was 9.34 µM, the GI50 (OVCAR-8 ovarian) was 1.52 µM and the TGI (OVCAR-8 ovarian) was 6.3 µM. It also gave a GI50 (M14 melanoma) of 4.11 µM, a TGI (M14 melanoma) of 9.71 µM and a GI50 (MDA-MB-468 breast) of 0.647 µM. It also gave a TGI (MDA-MB-468 breast) of 1.4 µM, a GI50 (RXF 393 renal) of 0.886 µM and a TGI (RXF 393 renal) of 2.69 µM. The GI50 (SN12C renal) was 2.36 µM, the TGI (SN12C renal) was 6.94 µM and the GI50 (HOP-92 NSCLC) was 5.25 µM. The TGI (HOP-92 NSCLC) was 11.3 µM, the GI50 (HS 578T breast) was 5.22 µM and the TGI (HS 578T breast) was 12.5 µM. For the same molecule, the GI50 (OVCAR-4 ovarian) was 2.5 µM, the TGI (OVCAR-4 ovarian) was 7.62 µM and the GI50 (IGROV1 ovarian) was 4.66 µM. It also gave a TGI (IGROV1 ovarian) of 9.78 µM, a GI50 (UACC-257 melanoma) of 5.65 µM and a TGI (UACC-257 melanoma) of 10.7 µM. The GI50 (TK-10 renal) was 7.05 µM, the TGI (TK-10 renal) was 13.5 µM and the GI50 (SK-MEL-28 melanoma) was 5.16 µM. For the same molecule, the TGI (SK-MEL-28 melanoma) was 9.94 µM, the GI50 (MDA-MB-435) was 0.998 µM and the TGI (MDA-MB-435) was 5.1 µM. The GI50 (SNB-75 CNS) was 4.39 µM, the TGI (SNB-75 CNS) was 9.51 µM and the GI50 (CCRF-CEM leukemia) was 1.04 µM. The TGI (CCRF-CEM leukemia) was 3.23 µM, the GI50 (HCT-15 colon) was 0.715 µM and the TGI (HCT-15 colon) was 1.76 µM. For the same molecule, the GI50 (SK-MEL-5 melanoma) was 5.65 µM, the TGI (SK-MEL-5 melanoma) was 11 µM and the GI50 (RPMI-8226 leukemia) was 1.42 µM. For the same molecule, the TGI (RPMI-8226 leukemia) was 7.17 µM, the GI50 (HT29 colon) was 1.96 µM and the TGI (HT29 colon) was 18.6 µM. The GI50 (ACHN renal) was 1.72 µM, the TGI (ACHN renal) was 6.11 µM and the GI50 (MCF7 breast) was 0.73 µM. The TGI (MCF7 breast) was 2.06 µM, the GI50 (OVCAR-5 ovarian) was 4.47 µM and the TGI (OVCAR-5 ovarian) was 9.1 µM. It also gave a GI50 (KM12 colon) of 1.14 µM, a TGI (KM12 colon) of 4.26 µM and a GI50 (SF-268 CNS) of 4.78 µM. For the same molecule, the TGI (SF-268 CNS) was 10.4 µM, the GI50 (K-562 leukemia) was 0.811 µM and the TGI (K-562 leukemia) was 33.8 µM. It also gave a GI50 (A549 NSCLC) of 1.58 µM, a TGI (A549 NSCLC) of 7.01 µM and a GI50 (SK-MEL-2 melanoma) of 5.95 µM. It also gave a TGI (SK-MEL-2 melanoma) of 11.4 µM, a GI50 (HCT-116 colon) of 0.696 µM and a TGI (HCT-116 colon) of 1.58 µM. It also gave a GI50 (COLO 205 colon) of 0.795 µM, a TGI (COLO 205 colon) of 1.99 µM and a GI50 (SF-539 CNS) of 1.12 µM. The TGI (SF-539 CNS) was 4.29 µM, the GI50 (U251 CNS) was 4.14 µM and the TGI (U251 CNS) was 9.49 µM. It also gave a GI50 (NCI-H226 lung) of 6.61 µM, a TGI (NCI-H226 lung) of 13.6 µM and a GI50 (NCI-H23 lung) of 3.74 µM. The TGI (NCI-H23 lung) was 8.72 µM, the GI50 (DU-145 prostate) was 1.38 µM and the TGI (DU-145 prostate) was 5.01 µM. For the same molecule, the GI50 (HCC-2998 colon) was 0.836 µM, the TGI (HCC-2998 colon) was 2.31 µM and the GI50 (SW-620 colon) was 0.552 µM. For the same molecule, the TGI (SW-620 colon) was 1.06 µM, the GI50 (CAKI-1 renal) was 0.915 µM and the TGI (CAKI-1 renal) was 2.98 µM. For the same molecule, the GI50 (SK-OV-3 ovarian) was 6.81 µM, the TGI (SK-OV-3 ovarian) was 13.3 µM and the GI50 (EKVX NSCLC) was 4.57 µM. It also gave a TGI (EKVX NSCLC) of 10 µM, a GI50 (T-47D breast) of 5.33 µM and a TGI (T-47D breast) of 15.6 µM. The GI50 (SF-295 CNS) was 1.86 µM, the TGI (SF-295 CNS) was 6.7 µM and the GI50 (MDA-MB-231 breast) was 1.83 µM. The TGI (MDA-MB-231 breast) was 5.89 µM, the GI50 (LOX IMVI melanoma) was 0.576 µM and the TGI (LOX IMVI melanoma) was 1.06 µM. It also gave a GI50 (OVCAR-3 ovarian) of 0.961 µM, a TGI (OVCAR-3 ovarian) of 3.43 µM and a GI50 (786-0 renal) of 0.596 µM. For the same molecule, the TGI (786-0 renal) was 1.31 µM, the GI50 (SR leukemia) was 0.682 µM and the TGI (SR leukemia) was 2.14 µM. The GI50 (SNB-19 CNS) was 5.71 µM, the TGI (SNB-19 CNS) was 11.3 µM and the GI50 (HOP-62 NSCLC) was 8.18 µM. It also gave a TGI (HOP-62 NSCLC) of 18.6 µM.
